Values after ≈ are worked out from the molar mass of the structure shown. Where two headings read alike, the source gives them in different places.
What was measured:
[1] = design: method as in earlier work; details: cited from earlier work
FAS [2] = target: T1, FAS (Rattus norvegicus, UniProt P12785); design: method as in PMID 23620264; details: previously described by the group; read-out: IC50 (FAS inhibition); cited from earlier work
T1 construct: Cytosolic hepatic extracts obtained from rat (210 µg) were preincubated at 30 °C for 30 min; from tissue; host or cells: rat liver (cytosolic, FAS-enriched hepatic extract)
T1 sequence (P12785 whole entry): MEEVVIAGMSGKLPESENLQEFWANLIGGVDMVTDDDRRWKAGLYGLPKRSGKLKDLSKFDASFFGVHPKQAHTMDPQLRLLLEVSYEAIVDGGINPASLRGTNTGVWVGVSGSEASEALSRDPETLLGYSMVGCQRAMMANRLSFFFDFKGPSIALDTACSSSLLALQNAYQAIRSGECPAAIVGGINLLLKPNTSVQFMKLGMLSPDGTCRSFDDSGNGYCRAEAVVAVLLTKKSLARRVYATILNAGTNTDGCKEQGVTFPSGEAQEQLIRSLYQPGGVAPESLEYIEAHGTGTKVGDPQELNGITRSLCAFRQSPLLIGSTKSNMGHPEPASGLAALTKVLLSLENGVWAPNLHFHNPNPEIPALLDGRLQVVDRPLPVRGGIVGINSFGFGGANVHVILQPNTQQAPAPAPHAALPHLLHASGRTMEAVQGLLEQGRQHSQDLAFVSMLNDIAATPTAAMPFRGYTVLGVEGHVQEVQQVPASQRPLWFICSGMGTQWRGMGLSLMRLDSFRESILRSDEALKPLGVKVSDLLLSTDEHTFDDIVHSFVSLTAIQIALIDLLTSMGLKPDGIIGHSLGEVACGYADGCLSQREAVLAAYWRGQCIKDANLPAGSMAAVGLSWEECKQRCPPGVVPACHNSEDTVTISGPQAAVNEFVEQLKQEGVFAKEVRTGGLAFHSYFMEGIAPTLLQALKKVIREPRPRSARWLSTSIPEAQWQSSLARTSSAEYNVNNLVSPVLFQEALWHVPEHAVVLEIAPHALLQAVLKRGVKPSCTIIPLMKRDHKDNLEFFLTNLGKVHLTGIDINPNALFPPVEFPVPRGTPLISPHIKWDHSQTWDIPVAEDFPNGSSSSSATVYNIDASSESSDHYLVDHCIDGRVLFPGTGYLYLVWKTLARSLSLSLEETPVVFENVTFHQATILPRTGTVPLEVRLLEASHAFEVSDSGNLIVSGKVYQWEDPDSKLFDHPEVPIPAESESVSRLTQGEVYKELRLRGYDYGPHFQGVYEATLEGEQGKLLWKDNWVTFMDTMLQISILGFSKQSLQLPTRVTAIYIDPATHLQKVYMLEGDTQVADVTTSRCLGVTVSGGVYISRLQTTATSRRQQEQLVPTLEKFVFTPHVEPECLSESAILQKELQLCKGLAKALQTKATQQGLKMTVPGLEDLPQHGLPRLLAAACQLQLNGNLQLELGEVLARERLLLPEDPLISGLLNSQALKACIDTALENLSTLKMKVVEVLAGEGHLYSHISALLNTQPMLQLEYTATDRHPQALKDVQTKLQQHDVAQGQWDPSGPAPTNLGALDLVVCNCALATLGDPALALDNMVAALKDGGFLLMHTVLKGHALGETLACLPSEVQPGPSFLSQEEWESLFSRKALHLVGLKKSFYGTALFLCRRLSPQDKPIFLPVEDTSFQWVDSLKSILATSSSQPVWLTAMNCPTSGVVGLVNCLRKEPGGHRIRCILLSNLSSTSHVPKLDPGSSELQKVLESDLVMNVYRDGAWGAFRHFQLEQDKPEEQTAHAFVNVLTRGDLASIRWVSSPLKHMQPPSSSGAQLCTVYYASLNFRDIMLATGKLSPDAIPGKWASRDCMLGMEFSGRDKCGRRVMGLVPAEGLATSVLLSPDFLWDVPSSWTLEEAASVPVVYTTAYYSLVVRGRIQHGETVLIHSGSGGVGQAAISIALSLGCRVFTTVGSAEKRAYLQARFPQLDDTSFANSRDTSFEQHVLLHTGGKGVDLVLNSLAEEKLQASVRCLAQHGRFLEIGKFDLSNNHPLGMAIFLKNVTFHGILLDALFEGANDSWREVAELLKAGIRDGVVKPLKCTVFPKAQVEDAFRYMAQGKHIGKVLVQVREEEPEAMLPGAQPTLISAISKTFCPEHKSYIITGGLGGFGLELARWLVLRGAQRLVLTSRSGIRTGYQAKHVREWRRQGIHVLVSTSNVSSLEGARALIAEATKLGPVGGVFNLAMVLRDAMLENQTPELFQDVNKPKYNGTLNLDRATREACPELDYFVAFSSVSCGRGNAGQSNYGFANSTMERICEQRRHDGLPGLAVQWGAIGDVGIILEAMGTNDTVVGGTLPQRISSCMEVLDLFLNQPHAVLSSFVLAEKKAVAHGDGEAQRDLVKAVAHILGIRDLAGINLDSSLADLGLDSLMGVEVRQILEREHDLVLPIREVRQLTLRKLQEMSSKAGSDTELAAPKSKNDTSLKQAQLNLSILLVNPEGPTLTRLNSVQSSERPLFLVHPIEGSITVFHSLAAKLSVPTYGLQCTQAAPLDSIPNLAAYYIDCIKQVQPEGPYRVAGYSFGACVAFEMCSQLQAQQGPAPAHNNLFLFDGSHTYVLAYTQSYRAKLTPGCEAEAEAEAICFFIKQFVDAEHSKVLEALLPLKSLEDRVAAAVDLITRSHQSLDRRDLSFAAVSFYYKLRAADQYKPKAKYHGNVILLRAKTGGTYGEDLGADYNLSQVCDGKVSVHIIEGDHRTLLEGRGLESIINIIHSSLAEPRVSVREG

[3] = Turbidimetry solubility assay; format: physicochemical; details: for solubility at 2 h: kinetic from dmso stock, 2 h at 37 °C, tested 25 μM–2 mM; for Solubility over tested concentrations: tested concentrations 25–2000 µM
Method: This effectively created two regression lines, with the intersection corresponding to the solubility of the compound.
The compounds were incubated for 2 h at 37 °C in a Thermoshaker (Biosan®, Riga, Latvia). Solubility was assessed through turbidimetry at 600 nm using Varioskan Lux® (Thermo Scientific®, Waltham, MA, USA). The approximate solubility was calculated by finding the intersection of the two regression lines formed before and after the curve tendency change due to precipitation of the compounds.

OVCAR-3 cell line = assay: MTT cytotoxicity assay in OVCAR-3 ovarian cancer cells; format: cell-based, human; details: for IC50: Homo sapiens, OVCAR-3, 72 h incubation, MTT, mean ± SEM of three experiments; for Fold increase in cytotoxicity compared with (±)-UB006: OVCAR-3, ratio of IC50 values
Method: OVCAR-3 (human ovary carcinoma, ATC HTB-161, passage number 20) cells were cultured at 37 °C in a humidified atmosphere of 5% CO2 in Dulbecco’s Modified Eagle Medium containing 4.5 g/L of glucose and supplemented with glutamine, 10% heat-inactivated fetal bovine serum, 100 units/mL of penicillin, and […] of streptomycin. The culture was passaged twice a week through gentle trypsinization. Cells were seeded in 10 cm culture dishes and grown to confluence. An MTT cytotoxicity assay was performed to evaluate the cytotoxic effect of the compounds. A total of 2 × 10^3 cells/well were plated in 96-well plates in […] of culture medium. After 24 h, the medium was removed, and cells were incubated for 72 h in fresh medium with different concentrations (0.5–20 µM) of the different compounds. DMSO was used as a blank at a final concentration of 0.5%. The cells were then incubated for 3 h with […] of fresh medium and […] of MTT dissolved in phosphate-buffered saline to a final concentration of 5 mg/mL. Following treatment, the supernatants were carefully removed, and the MTT–formazan crystals were solubilized by adding […] of DMSO. The absorbance was measured at 570 nm.
Samples were incubated for 3 days with increasing concentrations of the different compounds, followed by an MTT assay to quantify cell survival.

FAS [4] = target: T1, FAS; assay: Spectrophotometric FAS activity assay in rat liver extracts; format: biochemical; details: rat liver extracts (210 µg), preincubated 30 min at 30 °C, mean ± SEM of three experiments
Method: For in vitro experiments, FAS was purified from rat liver following the protocol previously described by Linn. FAS activity was measured using a spectrophotometric method, as previously described. […] NADPH (121 µM) and acetyl-CoA (61 µM) in potassium phosphate buffer (pH 7.2) were added to preincubated enzyme and equilibrated at 37 °C for 3 min. The reaction was initiated through the addition of malonyl-CoA (55 µM). The total reaction volume was 330 µL. Oxidation of NADPH was measured at 340 nm at 37 °C for 10 min.
Figure 3 FAS activity assay in rat liver extracts. Representation of % of remaining FAS activity of spectrophotometric activity assay.

Row | solubility at 2 h ([3]; water with 1% DMSO) [µM] | SMILES | IC50 (OVCAR-3 cell line) [µM] | also measured
1 |  | C=C1C(=O)O[C@@H](CCCCCCCC)[C@@H]1C(=O)O (racemic) [(±)-C75] |  | Solubility in basic aqueous media ([1]; basic aqueous media): < 100 µg/mL; Solubility in water ([1]; water): insoluble in water; IC50 (FAS [2]): 460 ± 56 µM
2 | 550 (≈ 132 µg/mL) | C=C1C(=O)O[C@@H](CCCCCCCC)[C@@H]1CO (racemic) [(±)-UB006, (4SR,5SR)-4-(hydroxymethyl)-3-methylene-5-octyldihydrofuran-2(3H)-one] |  | 
3 | 473 (≈ 120 µg/mL) | C=C1C(=O)O[C@@H](CCCCCCCC)[C@H]1C(C)O (mixture of isomers) [(±)-UB031, (4RS,5SR)-4-(1-hydroxyethyl)-3-methylene-5-octyldihydrofuran-2(3H)-one] | 3.6 ± 0.2 | Fold increase in cytotoxicity compared with (±)-UB006 (OVCAR-3 cell line): 1.4 fold
4 | 390 (≈ 105 µg/mL) | C=C1C(=O)O[C@@H](CCCCCCCC)[C@H]1C(O)CC (mixture of isomers) [(±)-UB032, (4RS,5SR)-4-(1-hydroxypropyl)-3-methylene-5-octyldihydrofuran-2(3H)-one] | 10.7 ± 0.9 | 
5 | 76 (≈ 24.7 µg/mL) | C=C1C(=O)O[C@@H](CCCCCCCC)[C@H]1C(O)CCCCCC (mixture of isomers) [(±)-UB033, (4RS,5SR)-4-(1-hydroxyheptyl)-3-methylene-5-octyldihydrofuran-2(3H)-one] | 13.6 ± 1.3 | 
6 | 88 (≈ 23.4 µg/mL) | C=CC(O)[C@H]1C(=C)C(=O)O[C@H]1CCCCCCCC (mixture of isomers) [(±)-UB034, (4RS,5SR)-4-(1-hydroxyallyl)-3-methylene-5-octyldihydrofuran-2(3H)-one] | 12.3 ± 1.2 | 
7 | > 2000 | C=C1C(=O)O[C@@H](CCCCCCCC)[C@H]1[C@@H](O)CO (racemic) [(±)-UB035, (4RS,5SR)-4-((RS)-1,2-dihydroxyethyl)-3-methylene-5-octyldihydrofuran-2(3H)-one] | 2.1 ± 0.2 | Solubility over tested concentrations [3]: soluble at all tested concentrations; Fold increase in cytotoxicity compared with (±)-UB006 (OVCAR-3 cell line): 2.5 fold; IC50 (FAS [4]): 565 ± 62 µM
8 | > 2000 | C=C1C(=O)O[C@@H](CCCCCCCC)[C@H]1C(O)C(O)CO (mixture of isomers) [(±)-UB036, (4RS,5SR)-3-methylene-5-octyl-4-(1,2,3-trihydroxypropyl)dihydrofuran-2(3H)-one] | 5.5 ± 0.8 | Solubility over tested concentrations [3]: soluble at all tested concentrations; Fold increase in solubility compared with (±)-UB006 ([3]; water with 1% DMSO): ≥ 4 fold; IC50 (FAS [4]): 458 ± 54 µM
